In brackets after ≈: the same amount, converted by molar mass. Read-outs that look alike come from different tables or passages of the source.
Legend:
[1] = system: porcine epidemic diarrhea virus (PEDV); experiment: Antiviral activity against PEDV in Vero cells (SRB staining); conditions: for IC50 (concentration required for 50% inhibition of viruses) / Inhibitory activity (TI = CC50/IC50): PEDV in Vero cells, 48 hours; for IC50 (concentration required for 50% inhibition of viruses): maximum dosage 100 μg/mL; for IC50: Porcine epidemic diarrhea virus, Vero, 48 h, read-out: IC50 (concentration required for 50% inhibition of viruses); for Inhibitory activity (TI = CC50/IC50): 0.1-100 μg/mL
rotavirus (strain: OSU) = experiment: Inhibitory activity against rotavirus in MA104 cells (SRB); type: cell-based; conditions: read-out: Inhibitory activity (%) (Mean ± S.D.)
Procedure: (§1) In order to evaluate the inhibitory activity of quercetin-7-rhamnoside against rota virus, the following in vitro test was performed using MA014 cells derived from pig kidney. Inhibitory activity of quercetin-7-rhamnoside against viral proliferation was measured by the method proposed by Kwon Dur-Han, et al. (Korean Patent Publication No. 2004-101863). Inhibitory activity against rotavirus (strain: OSU) was measured. MA104 cells were cultured on a 96-well microplate until the bottom of each well was completely covered with cells. Remaining culture medium was removed and each well was washed twice with a phosphate buffer. A rota virus solution adjusted to a concentration of TCID 50 was added to each well. […] After 48 hours, the MA104 cells were observed under a microscope. After adding 100 μL of 70% acetone, each well was kept at −20° C. for 1 hour. After drying in a desiccator, 100 μL of 0.4% (w/v) SRB (sulforhodamine B) solution dissolved in 1% (v/v) acetic acid was added. After 30 minutes of staining, the SRB solution not bound to the cells was washed off with 1% (v/v) acetic acid for 4 times. After drying, 100 μL of 10 mM Tris solution (pH 10.5) was added to each well to dissolve the stained substance at the bottom of the well. Light absorbance was measured at 562 nm to evaluate the antiviral activity. As control group, viability of cells treated with DMSO only was compared with those treated with both DMSO and virus. Each test was repeated for 2 times.

[2] = system: porcine respiratory coronavirus (PRCV); experiment: Anti-coronavirus inhibitory activity against PRCV in ST cells; type: cell-based; conditions: for inhibitory activity against PRCV (in words): 0.1-100 μg/mL, 48 hours
Procedure: (§2) Antiviral activity of quercetin-7-rhamnoside against porcine transmissible gastroenteritis virus (TGEV) and porcine respiratory coronavirus (PRCV), another kind of coronaviruses, was evaluated. ST cells were cultured on a 96-well microplate until the bottom of each well was completely covered with cells. Remaining culture medium was completely removed and each well was washed twice with a phosphate buffer. TGEV or PRCV solution adjusted to a concentration of TCID50 was added to each well. Each of quercetin-7-rhamnoside, conventional antiviral agents purchased from Sigma-ribavirin, lamivudine, azidovudine, acycloguanine and glycyrrhizhin-dissolved in dimethyl sulfoxide was added to each well to a final concentration of 0.1-100 μg/mL. […] Similarly to the aforesaid evaluation of antiviral inhibitory activity against PEDV, c ells treated with DMSO only and those treated with both DMSO and TGEV or both DMSO and PRCV were used as control groups.

[3] = system: porcine transmissible gastroenteritis virus (TGEV); experiment: Anti-coronavirus inhibitory activity against TGEV in ST cells; type: cell-based; conditions: for inhibitory activity against TGEV (in words): 0.1-100 μg/mL, 48 hours
Procedure: as §2

[4] = system: influenza type B (B/Lee/40) virus; experiment: Inhibitory activity against influenza type B virus in MDCK cells (SRB); type: cell-based; conditions: Influenza B virus, read-out: Inhibitory activity (%) (Mean ± S.D.)
[5] = system: influenza type A (H1N1/WS/33) virus; experiment: Antiviral activity against influenza type A virus in MDCK cells (SRB); type: cell-based, influenza virus type A (H1N1; WS/33 strain); conditions: Influenza A virus; 10 μg/mL, influenza A H1N1/WS/33 in MDCK cells, 48 hours, repeated 3 times; read-out: Inhibitory activity (%) (Mean ± S.D.)
Procedure: In order to evaluate the inhibitory activity of quercetin-7-rhamnoside against influenza virus, the following in vitro test was performed using MDCK cells derived from dog kidney.
Inhibitory activity of quercetin-7-rhamnoside against viral proliferation was measured by the method proposed by Kwon Dur-Han, et al. (Korean Patent Application No. 2004-101863). Inhibitory activity against influenza virus type A (H1N1; WS/33 strain) was measured. MDCK cells were cultured on a 96-well microplate until the bottom of each well was completely covered with cells. Remaining culture medium was completely removed and each well was washed twice with a phosphate buffer. Each of quercetin-7-rhamnoside; conventional antiviral agents purchased from Sigma-ribavirin and amantadine; oseltamivir (trade name: Tamiflu) purchased from Roche; and zanamivir (trade name: Relenza) purchased from Glaxo Wellcome; dissolved in dimethyl sulfoxide was added to each well to a final concentration of 10 μg/mL. […] After adding 100 μL of 70% acetone, each well was kept at −20° C. for 1 hour. After drying in a desiccator, 100 μL of 0.4% (w/v) SRB (sulforhodamine B) solution dissolved in 1% (v/v) acetic acid was added. After 30 minutes' staining, the SRB staining solution not bound to the cells was washed off with 1% (v/v) acetic acid for 4 times. After drying, 100 μL of 10 mM Tris solution (pH 10.5) was added to each well to dissolve the stained substance at the bottom of the well. Light absorbance was measured at 562 nm to evaluate the antiviral activity. As control group, viability of cells treated with DMSO only was compared with those treated with both DMSO and virus. Each test was repeated 3 times.

[6] = system: rhinovirus (strain: rhinovirus 2); experiment: Inhibitory activity against rhinovirus in HeLa cells (SRB); type: cell-based; conditions: for inhibition at 10 µg/mL: Enterovirus, HeLa, 48 h, read-out: Inhibitory activity (%) (Mean ± S.D.)
Procedure: as §1, with “against rhino” for “against rota”, “using HeLa, one of human cervical cancer cell lines, cells.” for “using MA014 cells derived from pig kidney.”, “2004-101863). […] HeLa” for “2004-101863). Inhibitory activity against rotavirus (strain: OSU) was measured. MA104”, “A rhino” for “A rota”, “the HeLa” for “the MA104”, “for 3” for “for 2”

in vitro [7] = conditions: African green monkey
in vitro [8] = conditions: pig
[9] = 10 μg/mL, rotavirus OSU in MA104 cells, 48 hours, repeated 2 times
[10] = 10 μg/mL, rhinovirus 2 in HeLa cells, 48 hours, repeated 3 times
[11] = 10 μg/mL, influenza B/Lee/40 in MDCK cells, 48 hours, repeated 3 times
[12] = Alphacoronavirus 1, 48 hours, read-out: IC50

Nc1nc2c(ncn2COCCO)c(=O)[nH]1 [Acycloguanine, acycloguanine]
IC50 (concentration required for 50% inhibition of viruses) [1]: IC50 not attained even at the maximum dosage
IC50 [1]: > 100 µg/mL
inhibition at 10 µg/mL (rotavirus (strain: OSU); [9]): 0.78%
inhibitory activity against PRCV (in words) [2]: no inhibitory activity
inhibitory activity against TGEV (in words) [3]: no inhibitory activity

NC12CC3CC(CC(C3)C1)C2 [Amantadine, amantadine]
inhibition at 10 µg/mL ([4]; MDCK, 48 h): -1.85%
inhibition at 10 µg/mL [5]: 14.6%

O=c1cc(-c2ccc(O)cc2)oc2cc(O)cc(O)c12 [Apigenin, apigenin]
IC50 [1]: 0.1 µg/mL (≈ 0.37 µM)
inhibition at 10 µg/mL [6, 10]: 9.24%
CC50 at 48 h (in vitro [7]): 50 µg/mL (≈ 185 µM)

O=c1c(-c2ccc(O)cc2)coc2cc(O[C@@H]3O[C@H](CO)[C@@H](O)[C@H](O)[C@H]3O)cc(O)c12 [Genistin, genistin]
IC50 (concentration required for 50% inhibition of viruses) [1]: IC50 not attained even at the maximum dosage.
IC50 [1]: > 100 µg/mL
inhibition at 10 µg/mL [6, 10]: 13%

CC1(C)[C@@H](O[C@H]2O[C@H](C(=O)O)[C@@H](O)[C@H](O)[C@H]2O[C@@H]2O[C@H](C(=O)O)[C@@H](O)[C@H](O)[C@H]2O)CC[C@]2(C)[C@H]3C(=O)C=C4[C@@H]5C[C@@](C)(C(=O)O)CC[C@]5(C)CC[C@@]4(C)[C@]3(C)CC[C@@H]12 [Glycyrrhizin, glycyrrhizin]
inhibition at 10 µg/mL (rotavirus (strain: OSU); Rotavirus, MA104, 48 h): 0.49%
inhibitory activity against PRCV (in words) [2]: no inhibitory activity
inhibitory activity against TGEV (in words) [3]: no inhibitory activity

COc1ccc([C@@H]2CC(=O)c3c(O)cc(O[C@@H]4O[C@H](CO[C@@H]5O[C@@H](C)[C@H](O)[C@@H](O)[C@H]5O)[C@@H](O)[C@H](O)[C@H]4O)cc3O2)cc1O [Hesperidin, hesperidin]
IC50 (concentration required for 50% inhibition of viruses) [1]: IC50 not attained even at the maximum dosage.
Inhibitory activity (%) (Mean ± S.D.) [6, 10]: 3.12%

Nc1ccn([C@@H]2CS[C@H](CO)O2)c(=O)n1 [Lamivudine, lamivudine]
IC50 [1]: > 100 µg/mL
inhibition at 10 µg/mL (rotavirus (strain: OSU); [9]): 0.02%
inhibitory activity against PRCV (in words) [2]: no inhibitory activity
inhibitory activity against TGEV (in words) [3]: no inhibitory activity

O=c1cc(-c2ccc(O)c(O)c2)oc2cc(O)cc(O)c12 [Luteolin, luteolin]
IC50 [1]: 0.21 µg/mL (≈ 0.734 µM)
inhibition at 10 µg/mL [6, 10]: 21.8%

O=c1c(O)c(-c2ccc(O)c(O)c2)oc2cc(O)cc(O)c12 [Quercetin, quercetin]
IC50 [1]: 10.7 µg/mL (≈ 35.4 µM)
inhibition at 10 µg/mL [6, 10]: 9.87%
CC50 at 48 h (in vitro [7]): 365 µg/mL (≈ 1210 µM)

C[C@@H]1O[C@@H](Oc2c(-c3ccc(O)c(O)c3)oc3cc(O)cc(O)c3c2=O)[C@H](O)[C@H](O)[C@H]1O [Quercitrin, quercitrin]
IC50 [1]: > 100 µg/mL
inhibition at 10 µg/mL [6]: 13.4%

CC(=O)N[C@H]1[C@H]([C@H](O)[C@H](O)CO)OC(C(=O)O)=C[C@@H]1N=C(N)N [Relenza, zanamivir]
inhibition at 10 µg/mL [4, 11]: 3.4%
IC50 (concentration required for 50% inhibition of viruses) [1]: IC50 not attained even at the maximum dosage
inhibition at 10 µg/mL (rotavirus (strain: OSU); [9]): 0.5%
inhibition at 10 µg/mL [5]: 52.7%

NC(=O)c1ncn([C@@H]2O[C@H](CO)[C@@H](O)[C@H]2O)n1 [Ribavirin, ribavirin]
inhibition at 10 µg/mL [4, 11]: 95.8%
IC50 [1]: 4.1 µg/mL (≈ 16.8 µM)
CC50 at 48 h (in vitro [8]): > 100 µg/mL
Inhibitory activity (%) (Mean ± S.D.) [6, 10]: 42.32 ± 4.38%
inhibition at 10 µg/mL [6, 10]: 42.3%
CC50 at 48 h (in vitro [7]): > 100 µg/mL
inhibition at 10 µg/mL (rotavirus (strain: OSU); [9]): 82.3%
IC50 [2, 12]: 61.6 µg/mL (≈ 252 µM)
inhibition at 10 µg/mL [5]: 74.2%
IC50 [3, 12]: 55.1 µg/mL (≈ 226 µM)

C[C@@H]1O[C@@H](OC[C@H]2O[C@@H](Oc3c(-c4ccc(O)c(O)c4)oc4cc(O)cc(O)c4c3=O)[C@H](O)[C@@H](O)[C@@H]2O)[C@H](O)[C@H](O)[C@H]1O [Rutin, rutin]
IC50 [1]: > 100 µg/mL
inhibition at 10 µg/mL [6, 10]: 25.7%

CCOC(=O)C1=C[C@@H](OC(CC)CC)[C@H](NC(C)=O)[C@@H](N)C1 [Tamiflu, oseltamivir]
inhibition at 10 µg/mL ([4]; MDCK, 48 h): -1.43%
IC50 (concentration required for 50% inhibition of viruses) [1]: IC50 not attained even at the maximum dosage
inhibition at 10 µg/mL [5]: -9.78%

catechin
Inhibitory activity (TI = CC50/IC50) [1]: > 9.0
Inhibitory activity (TI = CC50/IC50) ([1]; listed as catechin): 9.0
IC50 (concentration required for 50% inhibition of viruses) [1]: 11.1 µg/mL
Inhibitory activity (%) (Mean ± S.D.) [6, 10]: 11.21%

From US7998937B2, “Flavonoid compound having an antiviral activity” (Korea Research Institute of Bioscience and Biotechnology, priority 2005, dated 2011)
